# Experimental data published in patent publication US20260373093A1, “TIMESCALE-GUIDED MICROFLUIDIC SYNTHESIS OF POLYPHENOL-IRON III NETWORK NANOCAPSULES OF HYDROPHOBIC DRUGS” (Purdue Research Foundation, priority 2023, published 2026).
# “And” between values parts separate entries of the source, which are not always exact repeats. Equal entries are not always repeated. Where two headings read alike, the source gives them in different places.
# Experiments:
# Pancl cells = assay: MTT cytotoxicity, Panc1 cells (curcumin); assay type: cell-based, human; conditions: dosages >40 μM
# Description: Panc 10.05 or Pancl cells were seeded in 96-well plates at a density of 5,000 cells per well and allowed to adhere overnight. Panc10.05 cells were incubated with drug-free nanocapsules (pTAs), free paclitaxel, or TFN nanocapsules of paclitaxel at the concentrations ranging from 0.001 to 10 μg mL^−1 calculated by paclitaxel content at 37 °C and 5% CO2 for 24 hr. Pancl cells were incubated with pTAs, free curcumin, or TFN nanocapsules of curcumin at the concentration of 5-160 μM calculated by curcumin content at 37 °C and 5% CO2 for 48 hr. After the incubation, the cells were washed with PBS three times, and 100 μL fresh medium was added to each well. Then cells were cultured for another 24 hours. After incubation, 100 μL fresh medium was added to each well, and 10 μL MTT was added to each well, followed by a 4 h incubation for cleavage at 37 °C. Then 100 μL isopropanol with 0.04 N HCl was added to each well and mixed thoroughly with the medium by repeated pipetting. The result was read with a test wavelength of 570 nm and a reference wavelength of 630 nm using a Microplate Spectrophotometer. Experiments were performed in triplicate and presented as means±SD.
# [1] = cited from earlier work
# PANC-1 cells = assay: MTT cytotoxicity, PANC-1 cells (VPX); assay type: cell-based, human; conditions: 24 hr
# Description: (§1) PANC-1 cells were seeded in 96-well plates at a density of 5000 cells per well and allowed to adhere for 24 hours. CAF19 cells were seeded in 96-well plates at a density of 1500 cells per well and allowed to adhere for 24 hours. Cells were incubated with drug-free nanocapsules (pTAs), free drug of VPX, or TFN nanocapsules of VPX at the concentrations ranging from 0.05 to 20 μM calculated by VPX content at 37 °C and 5% CO2 for 24 hr. After the incubation, the cells were washed with PBS 3 times, and 100 μL fresh medium was added to each well. Cells were cultured for another 24 hours. After incubation, 100 μL fresh medium was changed to each well, and 10 μL MTT was added to each well, followed by 4 hr incubation for cleavage at 37 °C. Then 100 μL isopropanol with 0.04 N HCl was added to each well and mixed thoroughly with the medium by repeated pipetting. The result was read with a test wavelength of 570 nm and a reference wavelength of 630 nm using a Microplate Spectrophotometer. Experiments were performed in triplicate and presented as means±SD.
# CAF19 cells = assay: MTT cytotoxicity, CAF19 cells (VPX); assay type: cell-based; conditions: 24 hr
# Description: as §1
# Pa03C cells = assay: MTT cytotoxicity, Pa03C cells; assay type: cell-based; conditions: for cell viability: 1440 min
# Description: Pa03C cells were seeded in 96-well plates at a density of 4000 cells per well and allowed to adhere for 24 hours. Cells were incubated with drug-free nanocapsules (pEGCGs), free paclitaxel, or EFN nanocapsules of paclitaxel at concentrations ranging from 0.001 to 10 µg/mL calculated by paclitaxel content at 37 °C and 5% CO2 for 24 hr. After the incubation, the cells were washed with PBS 3 times, and 100 μL fresh medium was added to each well. Then, cells were cultured for […] another 24 hours. After incubation, 100 μL fresh medium was changed to each well, and 10 μL MTT was added to each well, followed by a 4 h incubation for cleavage at 37 °C. Then 100 μL isopropanol with 0.04 N HCl was added to each well and mixed thoroughly with the medium by repeated pipetting. The result was read with a test wavelength of 570 nm and a reference wavelength of 630 nm using a Microplate Spectrophotometer. Experiments were performed in triplicate and presented as means±SD.
smiles,measurement,setting,value
"COc1cc(/C=C/C(=O)CC(=O)/C=C/c2ccc(O)c(OC)c2)ccc1O [free curcumin, curcumin]",suppression of cell growth,Pancl cells,significant suppression of Pancl growth
"CCOC(=O)N[C@@H]1CC[C@@H]2[C@@H](C1)C[C@H]1C(=O)O[C@H](C)[C@H]1[C@H]2/C=C/c1ccc(-c2cccc(F)c2)cn1 [VPX, vorapaxar]",water solubility,[1]; VPX,1.4 μg/mL and ~ 3 μM
same,cell viability,PANC-1 cells; VPX treatment up to 20 μM,above 100%
same,toxicity,PANC-1 cells; up to 20 μM (VPX content),no toxicity
same,cell viability,CAF19 cells; VPX treatment up to 20 μM,above 100%
same,toxicity,CAF19 cells; up to 20 μM (VPX content),no toxicity
"O=C(O[C@@H]1Cc2c(O)cc(O)cc2O[C@@H]1c1cc(O)c(O)c(O)c1)c1cc(O)c(O)c(O)c1 [EGCG, epigallocatechin-3-gallate]",anticancer activity,Pa03C cells; EGCG on its own (from EFN cytotoxicity test),significant anticancer activity
"CC(=O)O[C@H]1C(=O)[C@@]2(C)[C@H]([C@H](OC(=O)c3ccccc3)[C@]3(O)C[C@H](OC(=O)[C@H](O)[C@@H](NC(=O)c4ccccc4)c4ccccc4)C(C)=C1C3(C)C)[C@]1(OC(C)=O)CO[C@@H]1C[C@@H]2O [free PTX, paclitaxel]",cell viability,Pa03C cells; PTX dosages >0.1 g/mL,~ 50%
same,cell viability,Pa03C cells; dosages of 1-10 μg/mL,~ 50%
same,water solubility,[1]; water,> 1 µg/mL
"C=C1CC[C@H](O)C/C1=C/C=C1\CCC[C@]2(C)[C@@H]([C@H](C)CCCC(C)C)CC[C@@H]12 [VD3, vitamin D]",water solubility,[1]; room temperature,< 0.001 µg/mL
